Numbers after ± are expanded uncertainties.
Conditions: 182.33 K; Liquid; Closed cell (Static) method

SMILES | vapor or sublimation pressure [kPa]
CCCC [butane] | 0.419 ± 0.011
CC [ethane] | 88.97 ± 0.39
CCC [propane] | 6.02 ± 0.044
